Data taken from ChEMBL document CHEMBL1201862, “PubChem BioAssay data set” (2004).
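Results reflect a 48-hour exposure of cells in 96-well plates to compound at five concentrations. GI50: concentration for 50% inhibition of growth.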 The source made the active and inactive calls. No stated cut-off is given here; in the data, active = GI50 up to about 1.1 µM and inactive = higher.

Tests used:
Assay in all cases: inhibition of tumour cell growth, NCI panel, 48 h
DLD-1 = test system: DLD-1
XF498 = test system: XF498
HOP-18 = test system: HOP-18
KM-20L2 = test system: KM-20L2
LXFL 529 = test system: LXFL 529
M19-MEL = test system: M19-MEL
DMS-273 = test system: DMS-273
DMS-114 = test system: DMS-114
RXF 631 = test system: RXF 631

O=[N+]([O-])C1(CO)COC(CCc2ccccc2)OC1 (stereo not given)
GI50 (DLD-1): > 100 µM (inactive)
GI50 (XF498): > 100 µM (inactive)
GI50 (HOP-18): > 100 µM (inactive)
GI50 (KM-20L2): > 100 µM (inactive)
GI50 (LXFL 529): > 100 µM (inactive)
GI50 (M19-MEL): > 100 µM (inactive)

CC(O)c1ccc(C(O)/C(=N\NC(=O)c2ccncc2)c2nc3ccc([N+](=O)[O-])cc3nc2O)cc1 (stereo not given)
GI50 (DLD-1): > 100 µM (inactive)
GI50 (XF498): > 100 µM (inactive)
GI50 (DMS-273): 83.8 µM (inactive)
GI50 (KM-20L2): 33.3 µM (inactive)
GI50 (LXFL 529): 54.6 µM (inactive)
GI50 (DMS-114): 16.7 µM (inactive)
GI50 (M19-MEL): > 100 µM (inactive)
GI50 (RXF 631): > 100 µM (inactive)

CCOC(=O)C1CCCCN1C(=O)OCc1ccccc1 (stereo not given)
GI50 (DLD-1): > 100 µM (inactive)
GI50 (XF498): 14.2 µM (inactive)
GI50 (DMS-273): > 100 µM (inactive)
GI50 (LXFL 529): > 100 µM (inactive)
GI50 (DMS-114): 97.7 µM (inactive)
GI50 (M19-MEL): > 100 µM (inactive)

COS(=O)c1cc(Cl)cc(Cl)c1OC(=O)CSSCC(=O)Oc1c(Cl)cc(Cl)cc1S(=O)OC (stereo not given)
GI50 (DLD-1): 15.3 µM (inactive)
GI50 (DMS-273): 12.4 µM (inactive)
GI50 (HOP-18): 21.6 µM (inactive)
GI50 (KM-20L2): 27.3 µM (inactive)
GI50 (LXFL 529): 21 µM (inactive)
GI50 (DMS-114): 15.8 µM (inactive)
GI50 (M19-MEL): 20 µM (inactive)
GI50 (RXF 631): 20.3 µM (inactive)

N#CC(/C(=N\NC(=O)c1ccncc1)C(=O)Nc1ccc([N+](=O)[O-])cc1[N+](=O)[O-])c1nc(-c2ccc(Br)cc2)cs1 (stereo not given)
GI50 (DLD-1): > 100 µM (inactive)
GI50 (KM-20L2): > 100 µM (inactive)
GI50 (LXFL 529): > 100 µM (inactive)
GI50 (DMS-114): > 100 µM (inactive)
GI50 (M19-MEL): > 100 µM (inactive)
GI50 (RXF 631): > 100 µM (inactive)

CC(=O)Nc1ccccc1-c1nc2ccccc2nc1-c1ccccc1
GI50 (DLD-1): > 100 µM (inactive)
GI50 (XF498): > 100 µM (inactive)
GI50 (DMS-273): > 100 µM (inactive)
GI50 (HOP-18): 0.521 µM (active)
GI50 (KM-20L2): > 100 µM (inactive)
GI50 (LXFL 529): > 100 µM (inactive)
GI50 (DMS-114): > 100 µM (inactive)
GI50 (M19-MEL): > 100 µM (inactive)

COc1c(Br)cc(Br)c(OC)c1-c1ccc[nH]1
GI50 (DLD-1): 62.5 µM (inactive)
GI50 (DMS-273): 87.9 µM (inactive)
GI50 (LXFL 529): > 100 µM (inactive)
GI50 (DMS-114): 74.6 µM (inactive)
GI50 (M19-MEL): 91 µM (inactive)

CCCCCCC(=O)C/C(CCC(=O)N(Cc1ccccc1)Cc1ccccc1)=N\NC(N)=O
GI50 (XF498): > 100 µM (inactive)
GI50 (DMS-273): > 100 µM (inactive)
GI50 (HOP-18): > 100 µM (inactive)
GI50 (KM-20L2): > 100 µM (inactive)
GI50 (LXFL 529): > 100 µM (inactive)
GI50 (DMS-114): > 100 µM (inactive)
GI50 (M19-MEL): > 100 µM (inactive)
GI50 (RXF 631): > 100 µM (inactive)

CC1(C2COC(=O)C2)SCCCS1 (stereo not given)
GI50 (DLD-1): > 100 µM (inactive)
GI50 (XF498): > 100 µM (inactive)
GI50 (DMS-273): > 100 µM (inactive)
GI50 (HOP-18): > 100 µM (inactive)
GI50 (KM-20L2): > 100 µM (inactive)
GI50 (LXFL 529): > 100 µM (inactive)
GI50 (DMS-114): > 100 µM (inactive)
GI50 (M19-MEL): > 100 µM (inactive)

N#C/C(=C\c1ccc2[nH]ccc2c1)C(=O)NCCCCNC(=O)/C(C#N)=C/c1ccc2[nH]ccc2c1
GI50 (DLD-1): > 100 µM (inactive)
GI50 (XF498): > 100 µM (inactive)
GI50 (DMS-273): > 100 µM (inactive)
GI50 (KM-20L2): > 100 µM (inactive)
GI50 (LXFL 529): > 100 µM (inactive)
GI50 (DMS-114): > 100 µM (inactive)
GI50 (M19-MEL): > 100 µM (inactive)
